Experimental data published in patent US20100173835A1, “Peptides for Treatment of Obesity” (Novo Nordisk A/S, priority 2008, published 2010).
Like-named read-outs stand apart in the source and are kept apart here. *1 amine or outer side, *2 acyl side, *3 side chain or, on linkers, in order; H or OH if unused. Where a SMILES comes first, the peptide text is derived from it. Bridges are numbered along the chain shown (N, C = ends). [ ]: non-standard residue; d: D form. The star is where a group is joined. Palmitoyl(16-(5-tetrazolyl)) = O=C(CCCCCCCCCCCCCCCc1nnn[nH]1)*; X2 = O=C(CCCCCCCCCCCCCCCc1nnn[nH]1)NS(=O)(=O)CCCC(=O)*; X1 = O=C(O)CN(CC(=O)O)C[C@H](N[*:1])C(=O)[*:2]; Hyp = O=C(O)[C@@H]1C[C@@H](O)CN1; NTA = O=C(O)CN(CC(=O)O)CC(=O)*; Nle = CCCC[C@H](N)C(=O)O; Dap = NC[C@H](N)C(=O)O; AEEA = NCCOCCOCC(=O)O

Columns and labels:
human MC4 receptor = target: T1, human MC4 receptor (Homo sapiens, UniProt P32245); experiment: Assay (V) Melanocortin Receptor 4 (MC4) binding assay; conditions: 125NDP-α-MSH binding, BHK cell membranes
T1 construct: expressed in transfected cells
T1 sequence (P32245 whole entry): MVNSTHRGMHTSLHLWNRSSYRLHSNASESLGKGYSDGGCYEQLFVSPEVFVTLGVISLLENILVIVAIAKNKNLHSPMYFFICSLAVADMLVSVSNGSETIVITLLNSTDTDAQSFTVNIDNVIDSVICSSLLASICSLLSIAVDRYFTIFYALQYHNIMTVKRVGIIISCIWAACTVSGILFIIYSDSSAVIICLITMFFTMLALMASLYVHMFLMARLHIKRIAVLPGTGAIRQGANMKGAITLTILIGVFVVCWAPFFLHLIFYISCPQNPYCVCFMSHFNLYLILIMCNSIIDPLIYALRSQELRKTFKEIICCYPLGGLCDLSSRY
Procedure: Assay (V)—Melanocortin Receptor 4 (MC4) Binding Assay
In vitro ^125NDP-α-MSH binding to recombinant BHK cells expressing human MC4 receptor (filtration assay).
The assay is performed in 5 ml minisorb vials (Sarstedt No. 55.526) or in 96-well filterplates (Millipore MADVN 6550), and using BHK cells expressing the human MC4 receptor using BHK cells stably expressing the human MC4 receptor. The membranes were prepared from frozen or fresh cells that were homogenized in 20 mM HEPES pH 7.1, 5 mM MgCl2 and 1 mg/ml bacitracin and centrifuged at 15000 rpm at 4° C., 10 min in a Sorvall RC 5B plus, SS-34 rotor. The supernatant was discarded, and the pellets were re-suspended in buffer, homogenized and centrifuged two more times. The final pellets were resuspended in the buffer mentioned above, and the protein concentration was measured and adjusted with buffer to 14 to 17 mg/ml and the membrane preparation were kept at −80° C. until assay. The assay was run directly on a dilution of this cell membrane suspension, without any further preparation. The BHK cell membranes are kept at −80° C. until assay, and the assay is run directly on a dilution of this cell membrane suspension, without further preparation. The suspension is diluted to give maximally 10% specific binding, i.e. to approx. 50-100 fold dilution. The assay is performed in a total volume of 200 μl: 50 μl of cell suspension, 50 μl of ^125NDP-α-MSH (≈79 pM in final concentration), 50 μl of test compound and 50 μl binding buffer (pH 7) mixed and incubated for 2 h at 25° C. [binding buffer: 25 mM HEPES, pH 7.0, 1 mM CaCl2, 1 mM MgSO4, 1 mM EGTA, 0.02% Bacitracin, 0.005% Tween™ 20 and 0.1% HSA or, alternatively, 0.1% ovalbumin (Sigma; catalogue No. A-5503)]. Test compounds are dissolved in DMSO and diluted in binding buffer. Radiolabelled ligand and membranes are diluted in binding buffer. The incubation is stopped by dilution with 2×100 μl ice-cold 0.9% NaCl. The radioactivity retained on the filters is counted using a Cobra II auto gamma counter.
(§1) The data are analysed by non-linear regression analysis of binding curves, using the Windows™ program GraphPad™ Prism (GraphPad Software, USA).

MC1 receptor = target: T2, MC1 receptor (Homo sapiens, UniProt Q01726); experiment: Assay (IV) Melanocortin Receptor 1 (MC1) binding assay
T2 construct: expressed in transfected cells
T2 sequence (Q01726 whole entry): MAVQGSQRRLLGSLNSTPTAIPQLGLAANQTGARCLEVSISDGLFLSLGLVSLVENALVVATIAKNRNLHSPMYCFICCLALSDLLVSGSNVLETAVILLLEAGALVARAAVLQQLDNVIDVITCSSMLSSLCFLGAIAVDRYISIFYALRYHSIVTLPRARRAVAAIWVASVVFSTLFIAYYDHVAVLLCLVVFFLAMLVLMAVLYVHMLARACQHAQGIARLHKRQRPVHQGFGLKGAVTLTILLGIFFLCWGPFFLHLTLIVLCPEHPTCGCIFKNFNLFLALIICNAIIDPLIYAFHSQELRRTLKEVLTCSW
Procedure: Assay (IV)—Melanocortin Receptor 1 (MC1) Binding Assay
The MC1 receptor binding assay is performed on BHK cell membranes stably expressing the MC1 receptor. The assay is performed in a total volume of 250 NI: 25 μl of ^125NDP-α-MSH (22 pM in final concentration), 25 μl of test compound/control and 200 μl of cell membrane (25 μg/ml). Test compounds are dissolved in DMSO. Radioactively labeled ligand, membranes and test compounds are diluted in buffer: 25 mM HEPES, pH 7.4, 0.1 mM CaCl2, 1 mM MgSO4, 1 mM EDTA, 0.1% HSA and 0.005% Tween™ 20. Alternatively, HSA may be substituted with ovalbumin. The samples are incubated at 30° C. for 90 min. in Costar round-bottom microtiter plates. Incubation is terminated by filtration on a Packard harvester filtermate. Rapid filtration through Packard Unifilter-96 GF/B filters pre-treated with polyethylenimine (PerkinElmer 6005277). The filters are washed with ice-cold 0.9% NaCl 8-10 times. The plates is air dried at app. 55° C. for 30 min, and 50 μl Microscint 0 (Packard, cat. No. 6013616) is added to each well. The plates are counted in a Topcounter (1 min/well).
as §1

## CCCC[C@H](NC(=O)[C@H](CN(CC(=O)O)CC(=O)O)NC(=O)[C@H](Cc1c[nH]cn1)NC(=O)[C@H](CCC(N)=O)NC(=O)[C@H](CO)NC(=O)CNC(=O)COCCOCCNC(=O)CCCCCCCCCCCCCCCc1nnn[nH]1)C(=O)N[C@H]1CCC(=O)NCCCC[C@@H](C(N)=O)NC(=O)[C@H](Cc2c[nH]c3ccccc23)NC(=O)[C@H](CCCNC(=N)N)NC(=O)[C@@H](Cc2ccccc2)NC(=O)[C@@H]2C[C@@H](O)CN2C1=O [Example 6, (2-{2-[16-(Tetrazol-5-yl)hexadecanoylamino]ethoxy}ethoxy)acetyl-Gly-Ser-Gln-His-Dap(biscarboxymethyl)-Nle-c[Glu-Hyp-D-Phe-Arg-Trp-Lys]-NH2] ({Palmitoyl(16-(5-tetrazolyl))-AEEA}-GSQH[X1][Nle]E[Hyp][dF]RWK-NH2; lactam 7-12)
Human MC4 receptor; Assay (V) MC4 [Ki] (nM)
  Ki: 2.9 nM
MC1 receptor
  Ki: 5860 nM

## CCCC[C@H](NC(=O)[C@H](CN(CC(=O)O)CC(=O)O)NC(=O)[C@H](Cc1ccc(O)cc1)NC(=O)[C@H](CCC(N)=O)NC(=O)[C@H](CO)NC(=O)CNC(=O)COCCOCCNC(=O)CCCCCCCCCCCCCCCc1nnn[nH]1)C(=O)N[C@H]1CCC(=O)NCCCC[C@@H](C(N)=O)NC(=O)[C@H](Cc2c[nH]c3ccccc23)NC(=O)[C@H](CCCNC(=N)N)NC(=O)[C@@H](Cc2ccccc2)NC(=O)[C@@H]2C[C@@H](O)CN2C1=O [Example 23, (2-{2-[16-(Tetrazol-5-yl)hexadecanoylamino]ethoxy}ethoxy)acetyl-Gly-Ser-Gln-Tyr-Dap(biscarboxymethyl)-Nle-c[Glu-Hyp-D-Phe-Arg-Trp-Lys]-NH2] ({Palmitoyl(16-(5-tetrazolyl))-AEEA}-GSQY[X1][Nle]E[Hyp][dF]RWK-NH2; lactam 7-12)
Human MC4 receptor; read-out: Assay (V) MC4 [Ki]
  Ki: 7.9 nM
MC1 receptor; 125NDP-α-MSH binding, BHK cell membranes, read-out: Assay (IV) MC1 Ki
  Ki: > 10000 nM

## CCCC[C@H](NC(=O)[C@H](CNC(=O)CN(CC(=O)O)CC(=O)O)NC(=O)[C@H](Cc1c[nH]cn1)NC(=O)[C@H](CCC(N)=O)NC(=O)[C@H](CO)NC(=O)CNC(=O)COCCOCCNC(=O)CCCS(=O)(=O)NC(=O)CCCCCCCCCCCCCCCc1nnn[nH]1)C(=O)N[C@H]1CCC(=O)NCCCC[C@@H](C(N)=O)NC(=O)[C@H](Cc2c[nH]c3ccccc23)NC(=O)[C@H](CCCNC(=N)N)NC(=O)[C@@H](Cc2ccccc2)NC(=O)[C@@H]2C[C@@H](O)CN2C1=O [Example 11, [2-(2-{4-[16-(Tetrazol-5-yl)hexadecanoylsulfamoyl]butanoylamino}ethoxy)ethoxy]acetyl-Gly-Ser-Gln-His-Dap(BCMA)-Nle-c[Glu-Hyp-D-Phe-Arg-Trp-Lys]-NH2] ({X2-AEEA}-GSQH[Dap](NTA)[Nle]E[Hyp][dF]RWK-NH2; lactam 7-12)
Human MC4 receptor; Assay (V) MC4 [Ki] (nM)
  Ki: 3.25 nM
MC1 receptor
  Ki: 9700 nM
